Measurements as given in the NIST ThermoML archive (doi:10.1016/j.jct.2011.02.008).

Experiment: xn = mol fraction of the nth substance listed
Conditions: Liquid, Vibrating tube method

COC(=O)c1ccccc1 [methyl benzoate] + CCCCCCO
mass density [kg/m3]
Conditions | x1 = 0.1004 | x1 = 0.2007 | x1 = 0.3007 | x1 = 0.4013 | x1 = 0.5005 | x1 = 0.6009 | x1 = 0.7 | x1 = 0.8008 | x1 = 0.9009
298.15 K, 10000 kPa | – | – | – | – | 955.1 | 982 | 1008.4 | 1035.4 | 1062.3
298.15 K, 15000 kPa | 851.5 | 878 | 904.9 | 931.7 | 958.3 | 985.1 | 1011.5 | 1038.5 | 1065.3
298.15 K, 20000 kPa | 854.5 | 881.1 | 907.9 | 934.7 | 961.3 | 988.1 | 1014.5 | 1041.5 | 1068.3
298.15 K, 25000 kPa | 857.5 | 884.1 | 910.9 | 937.7 | 964.2 | 991 | 1017.4 | 1044.4 | 1071.2
298.15 K, 30000 kPa | 860.4 | 886.9 | 913.8 | 940.5 | 967.1 | 993.9 | 1020.3 | 1047.2 | 1074
298.15 K, 35000 kPa | 863.2 | 889.7 | 916.6 | 943.3 | 969.9 | 996.6 | 1023 | 1049.9 | 1076.7
298.15 K, 40000 kPa | 865.9 | 892.5 | 919.3 | 946.1 | 972.6 | 999.3 | 1025.7 | 1052.6 | 1079.4
298.15 K, 45000 kPa | 868.6 | 895.1 | 921.9 | 948.7 | 975.3 | 1002 | 1028.4 | 1055.3 | 1082
298.15 K, 50000 kPa | 871.1 | 897.7 | 924.5 | 951.3 | 977.8 | 1004.6 | 1031 | 1057.9 | 1084.6
298.15 K, 55000 kPa | 873.7 | 900.2 | 927.1 | 953.9 | 980.4 | 1007.2 | 1033.5 | 1060.4 | 1087.1
298.15 K, 60000 kPa | 876 | 902.5 | 929.4 | 956.2 | 982.7 | 1009.5 | 1035.9 | 1062.7 | 1089
308.15 K, 100 kPa | 834 | 860.4 | 886.9 | 913.6 | 939.9 | 966.6 | 993 | 1019.9 | 1046.6
308.15 K, 1000 kPa | 834.6 | 861.1 | 887.5 | 914.2 | 940.6 | 967.2 | 993.7 | 1020.5 | 1047.2
308.15 K, 5000 kPa | 837.5 | 864 | 890.4 | 917.1 | 943.4 | 970 | 996.4 | 1023.2 | 1049.9
308.15 K, 10000 kPa | 841 | 867.4 | 893.8 | 920.5 | 946.8 | 973.4 | 999.7 | 1026.5 | 1053.1
308.15 K, 15000 kPa | 844.3 | 870.7 | 897.1 | 923.7 | 950 | 976.6 | 1003 | 1029.7 | 1056.4
308.15 K, 20000 kPa | 847.5 | 873.9 | – | – | – | – | – | – | –
